Test results reported in patent publication US12291504B2 (University of Pittsburgh—Of the Commonwealth System of …, priority 2018, dated 2025).
Read-outs that look alike come from different tables or passages of the source.

Assays:
[1] = target: T1, SULT1A3 (Homo sapiens, UniProt P0DMM9); assay: SULT1A3 inhibition studies, 1-HP initial-rate fluorescence assay; assay type: biochemical; design: Wild-type and mutant SULT1A3 coding regions were inserted into a pGEX-6P expression vector; N-His/GST/MBP triple-tag (N, cleaved yes); made in house; host or cells: E. coli BL21(DE3); inhibition: dose or concentration left out as unconfirmed; conditions: for inhibition: read-out: SULT1A3 Enzyme Inhibition at Saturation/%
T1 sequence (P0DMM9 whole entry): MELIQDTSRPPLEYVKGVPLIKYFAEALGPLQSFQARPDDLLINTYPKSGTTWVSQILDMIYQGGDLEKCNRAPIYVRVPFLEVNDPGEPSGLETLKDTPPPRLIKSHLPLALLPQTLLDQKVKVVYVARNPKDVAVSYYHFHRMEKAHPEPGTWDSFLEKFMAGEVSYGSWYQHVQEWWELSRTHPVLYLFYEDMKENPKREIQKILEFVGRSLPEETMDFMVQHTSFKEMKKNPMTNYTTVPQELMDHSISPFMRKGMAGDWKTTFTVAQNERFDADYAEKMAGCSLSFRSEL
Description: The initial rates of SULT catalyzed 1-HP sulfonation are plotted as a function of inhibitor concentration, and are normalized relative to [inhibitor]=0. Enzyme activity was monitored by the sulfonation dependent change in 1-HP fluorescence (λex=325 nm, λem=370 nm). Less than 5% of the concentration-limiting substrate converted at the reaction endpoint was consumed during initial-rate measurements. Each point is the average of three independent determinations. Conditions: SULT (20 nM, active sites), PAPS (0.50 mM, 17×Km), 1-HP (5.0 μM, 61×Km), KPO4 (50 mM), pH 7.5, 25±2° C.
(§1) Initial-Rate Studies. Initial-rate parameters for the labeled or mutant SULT1A3 constructs were determined using a previously described 1-HP assay (25). Briefly, reactions were initiated by addition of PAPS (0.50 mM, 17×Km) to a solution containing enzyme (20 nM, active sites), 1-HP (2.0 μM, ˜24×Km), and KPO4 (50 mM), pH 7.5, 25±2° C. Reactions were monitored via fluorescence change associated with the conversion of 1-HP to 1-HP-S (λex=325 nm, λem=370 nm). Keq for the 1-HP sulfonation reaction is −250. Given the reaction conditions outlined above, ≥99% of 1-HP is converted to 1-HP-S, and ˜0.4% of PAPS is converted to PAP at equilibrium. […] Reaction progress curves were analyzed to obtain initial-rate parameters as described previously (26,27).
(§2) Inhibition studies. Inhibition parameters were determined under conditions identical to those described above (see, Initial-Rate Studies) except that [1-HP] was increased to 5.0 μM (˜61×Km) and inhibitor concentration was varied between 0.20-20×Ki. Ki was obtained using a least-squares fit to the following partial inhibition equation (25,28): v=kcat·(Ki+(1/kcat inh)·[I])/(Ki+[I]), where kcat inh is enzyme turnover at saturating substrates and allosteric inhibitor.
as §1, with “(47).” for “(25).”, “˜250.” for “−250.”, “(48,49).” for “(26,27).”
as §2, with “(47,50): V/Vax=(Ki+α·[I])/(Ki+[I]),” for “(25,28): v=kcat·(Ki+(1/kcat inh)·[I])/(Ki+[I]),”, “α” for “kcat inh”, “is percentage of” for “is”, “turnover remaining” for “turnover”

[2] = target: SULT1A1 (Homo sapiens, UniProt P50225); assay: SULT1A1 inhibition, 1-HP initial-rate assay; assay type: biochemical; conditions: ND = inhibition was not detected at 30 μM compound, parentheses one standard error; for inhibition: read-out: SULT1A1 Enzyme Inhibition at Saturation/%
Sequence of SULT1A1 (P50225 whole entry): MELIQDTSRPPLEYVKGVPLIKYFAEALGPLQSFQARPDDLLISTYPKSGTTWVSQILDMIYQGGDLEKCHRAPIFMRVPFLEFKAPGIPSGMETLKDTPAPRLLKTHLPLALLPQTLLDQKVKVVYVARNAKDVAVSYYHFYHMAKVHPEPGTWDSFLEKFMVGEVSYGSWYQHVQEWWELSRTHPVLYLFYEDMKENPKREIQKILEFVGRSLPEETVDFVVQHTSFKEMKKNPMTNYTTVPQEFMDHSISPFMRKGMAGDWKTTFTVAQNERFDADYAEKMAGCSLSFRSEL
Description: as §2
as §2, with “(47,50): V/Vax=(Ki+α·[I])/(Ki+[I]),” for “(25,28): v=kcat·(Ki+(1/kcat inh)·[I])/(Ki+[I]),”, “α” for “kcat inh”, “is percentage of” for “is”, “turnover remaining” for “turnover”

[3] = target: T2, Rat (1D1) (Rattus norvegicus, UniProt G3V9R3); assay: Inhibition of SULT1A3 homologues in different species: Rat; assay type: biochemical
T2 sequence (G3V9R3 1-295): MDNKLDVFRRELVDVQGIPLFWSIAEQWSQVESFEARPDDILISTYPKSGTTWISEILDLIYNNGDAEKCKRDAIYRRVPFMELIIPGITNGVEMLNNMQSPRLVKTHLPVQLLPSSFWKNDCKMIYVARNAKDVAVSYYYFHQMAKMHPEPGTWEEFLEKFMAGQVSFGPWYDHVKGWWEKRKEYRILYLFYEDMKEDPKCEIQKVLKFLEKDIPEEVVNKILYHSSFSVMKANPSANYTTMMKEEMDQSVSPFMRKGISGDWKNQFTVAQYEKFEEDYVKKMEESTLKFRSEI
Description: (§3) Compounds 12, 23 and 25 were also tested for Inhibition of SULT1A3 in different species.
(§4) Inhibition of SULT1A3 Homologues in Different Species. SULT1A3 is only expressed in humans and higher primates. SULT1D1 is the isoform expressed in dogs and rodents that sulfonates neurotransmitters and is most similar to SULT1A3. Three synthesized allosteres (12, 23, and 25) were tested against both 1A3 and 1D1 from different species in order to explore testing in animal models. […] Mice have been engineered such that their SULT1A1/2 enzymes have been knocked out and replaced with the human versions of those isoforms.

[4] = target: Dog (1D1) (Canis lupus familiaris, UniProt A0A8I3RXJ1); assay: Inhibition of SULT1A3 homologues in different species: Dog; assay type: biochemical
Sequence of Dog (1D1) (A0A8I3RXJ1 entry or part of it): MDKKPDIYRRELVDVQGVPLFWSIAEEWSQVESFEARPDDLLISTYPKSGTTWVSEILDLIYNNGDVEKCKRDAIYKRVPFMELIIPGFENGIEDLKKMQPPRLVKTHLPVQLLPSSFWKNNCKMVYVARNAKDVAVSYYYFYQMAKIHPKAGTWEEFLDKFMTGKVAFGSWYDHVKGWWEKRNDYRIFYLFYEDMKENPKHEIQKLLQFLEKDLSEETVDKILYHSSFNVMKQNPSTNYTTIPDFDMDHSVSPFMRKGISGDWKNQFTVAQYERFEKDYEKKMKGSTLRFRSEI
Description: as §4, with “Compounds 12, 23 and 25 were also tested for Inhibition of SULT1A3 in different species. Inhibition” for “Inhibition”

[5] = target: Green Monkey (1A3) (Chlorocebus sabaeus, UniProt Z9LO20H8W3); assay: Inhibition of SULT1A3 homologues in different species: Green Monkey; assay type: biochemical
Sequence of Green Monkey (1A3) (Z9LO20H8W3 1-295): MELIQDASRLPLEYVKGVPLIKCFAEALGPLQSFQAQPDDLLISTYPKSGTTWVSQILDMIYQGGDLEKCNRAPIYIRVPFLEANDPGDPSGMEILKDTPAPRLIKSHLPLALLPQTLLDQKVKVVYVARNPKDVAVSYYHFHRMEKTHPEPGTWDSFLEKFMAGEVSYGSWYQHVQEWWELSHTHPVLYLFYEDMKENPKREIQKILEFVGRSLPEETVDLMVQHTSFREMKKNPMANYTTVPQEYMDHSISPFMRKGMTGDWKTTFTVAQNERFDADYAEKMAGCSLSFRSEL
Description: as §3, §4

[6] = target: Mouse (1D1) (Mus musculus, UniProt Q3UZZ6); assay: Inhibition of SULT1A3 homologues in different species: Mouse; assay type: biochemical
Sequence of Mouse (1D1) (Q3UZZ6 whole entry): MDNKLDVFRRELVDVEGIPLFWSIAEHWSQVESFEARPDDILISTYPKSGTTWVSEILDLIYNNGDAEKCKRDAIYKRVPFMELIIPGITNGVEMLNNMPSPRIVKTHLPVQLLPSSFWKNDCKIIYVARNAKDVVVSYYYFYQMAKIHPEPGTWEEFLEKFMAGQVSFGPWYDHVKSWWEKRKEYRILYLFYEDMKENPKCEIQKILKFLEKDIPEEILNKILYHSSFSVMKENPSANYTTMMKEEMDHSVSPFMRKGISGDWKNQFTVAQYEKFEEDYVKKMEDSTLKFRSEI
Description: as §3, §4

[7] = target: Rhesus Macaque (1A3) (Macaca mulatta, UniProt A0A5F7ZQH3); assay: Inhibition of SULT1A3 homologues in different species: Rhesus Macaque; assay type: biochemical
Sequence of Rhesus Macaque (1A3) (A0A5F7ZQH3 1-295): as the sequence (Z9LO20H8W3 1-295) above, with A7T, V15M, C23Y, R230K, Y247F, A278E counted along it
Description: as §3, §4

[8] = target: T1, SULT1A3; assay: Pre-steady state binding of PAP to SULT1A3 (stopped-flow fluorescence); design: Wild-type and mutant SULT1A3 coding regions were inserted into a pGEX-6P expression vector; N-His/GST/MBP triple-tag (N, cleaved yes); made in house; host or cells: E. coli BL21(DE3)
Description: The effect of CMP8 on PAP binding to SULT1A3 was monitored using a stopped-flow spectrofluorimeter (λex=290 nm, λem≥330 nm (cutoff filter)). […] Each kobs value was determined in triplicate and the averaged values are shown. kon and koff are given, respectively, by the slopes and intercepts obtained from linear least-squares fitting of the kobs vs [PAP] plots.
(§5) Pre-Steady State Binding Studies. The pre-steady state binding of PAP to SULT1A3 was monitored via ligand-induced enzyme fluorescence changes in SULT1A3 using an Applied Photophysics SX20 stopped-flow spectrofluorimeter (32). […] All reactions were pseudo first order in [PAP]. The observed rate constant (kobs) at a given [PAP] was taken as the average of three independent progress curves each obtained from a single-exponential fit of 6-9 averaged, binding progress curves. The rate constants, kon and koff, were obtained from the slopes and intercepts predicted by linear least-squares analysis of four-points kobs vs [PAP] plots.
Given that CMP8 interacts with the SULT1A3 cap, it was reasoned it might inhibit by stabilizing the cap-closed form(s) of the enzyme. To test this hypothesis, the microscopic rate constants for nucleotide binding and release were determined in the presence and absence of saturating CMP8. The binding reactions were monitored via intrinsic fluorescence changes associated with ligand binding (30-32) (see, Methods). The resulting kobs vs [PAP] plots are presented in FIG. 4. kon and koff are obtained, respectively, from the slopes and intercepts of the plots (30,31), see Table C. […] Thus, CMP8 does indeed slow nucleotide release by increasing Kiso and thus stabilizing the closed form of the cap.
as §5, with “(29).” for “(32).”

[9] = ND = inhibition was not detected at 30 μM compound, parentheses one standard error, read-out: SULT1A3 Ki/μM
[10] = saturating CMP8 (1.7 μM, 50×Kd)

Row | Ki [1, 9] | inhibition ([1]; parentheses one standard error) | Ki [2] | inhibition [2] | SMILES | further results
1 | 4.1 µM | 72% | 22 µM | 30% | O=C(O)/C=C/c1ccc2ncccc2c1 [Compound 10, (E)-3-(quinolin-6-yl)acrylic acid] | 
2 | 0.085 µM | 52% |  |  | CC1Cc2nc3ccc(C(N)=O)cc3cc2C(O)C1 (centres unmarked) [Compound 28, 8-Hydroxy-6-methyl-5,6,7,8-tetrahydroacridine-2-carboxamide] | 
3 | 0.017 µM | 90% |  |  | CC(C)Cc1ccc2cc(CCC(N)=O)cnc2n1 [Compound 25] | Rat (1D1) % inh [3]: 21 (3) %; Ki ([3]; parentheses one standard error): 1.1 µM; Dog (1D1) % inh [4]: 73 (4) %; Ki ([4]; standard error in neighbouring cell): 0.052 µM; Human (1A3) % inh ([1]; parentheses one standard error): 90 (3) %; Ki ([1]; standard error in neighbouring cell, read-out: Human (1A3) Ki): 0.017 µM; Green Monkey (1A3) % inh [5]: 72 (5) %; Ki ([5]; parentheses one standard error): 0.087 µM; Mouse (1D1) % inh [6]: 91 (2) %; Ki ([6]; parentheses one standard error): 0.032 µM; Rhesus Macaque (1A3) % inh [7]: 95 (2) %; Ki ([7]; parentheses one standard error): 0.025 µM
4 | 0.19 µM | 65% | 6.2 µM | 48% | CC(C)Cc1ccc2cc(/C=C/C(N)=O)ccc2n1 [Compound 13, (E)-3-(2-Isobutylquinolin-6-yl)acrylamide] | 
5 | 7.5 µM |  | 7.7 µM | 20% | Cc1nc2ccc(CO)cc2cc1CC(C)C [Compound 4] | 

Continued, compound first:

Row | SMILES | Ki [1, 9] | inhibition ([1]; parentheses one standard error) | Ki [2] | inhibition [2] | further results
6 | CCCCNC(=O)c1ccc2nc(CC(C)C)ccc2c1 [Compound 7, N-Butyl-2-isobutylquinoline-6-carboxamide] | 1.3 µM | 51% | 5.1 µM | 67% | 
7 | COC(=O)c1ccc2nc3c(cc2c1)C(=O)CC(C)C3 (centres unmarked) [Compound 6, Methyl 6-methyl-8-oxo-5,6,7,8-tetrahydroacridine-2-carboxylate] | 0.66 µM | 35% |  |  | 
8 | CC(C)(C)Cc1ccc2cc(CO)ccc2n1 [Compound 18] |  |  | 2.5 µM | 40% | 
9 | CCCn1cc(-c2ccc3ncccc3c2)nn1 [Compound 5, 6-(1-Propyl-1H-1,2,3-triazol-4-yl)quinoline] | 3.1 µM | 33% | 4.7 µM | 53% | 
10 | CC(C)Cc1ccc2cc(C(N)=O)ccc2n1 [Compound 11, 2-Isobutylquinoline-6-carboxamide] | 0.86 µM | 78% |  |  | 
11 | CC1CC(=O)c2cc3cc(C(N)=O)ccc3nc2C1 (centres unmarked) [Compound 27, 6-Methyl-8-oxo-5,6,7,8-tetrahydroacridine-2-carboxamide] | 0.11 µM | 75% |  |  | 
12 | CCOC(=O)CCc1ccc2cc(CCC(N)=O)ccc2n1 [Compound 9, Ethyl 3-(6-(3-amino-3-oxopropyl)quinolin-2-yl)propanoate] | 0.33 µM | 63% |  |  | 
13 | COCc1ccc2nc(CC(C)C)ccc2c1 [Compound 3, 2-Isobutyl-6-(methoxymethyl)quinolone] | 6.1 µM | 10% | 5.7 µM | 10% | 
14 | CC(C)Cc1ccc2cc(/C=C/C(=O)O)cnc2n1 [Compound 24, (E)-3-(7-Isobutylnaphthyridin-3-yl)acrylic acid] | 3.1 µM | 29.4% |  |  | 
15 | CCCn1cc(-c2ccc3ccc(O)cc3c2)nn1 [Compound 20] | 2.6 µM | 16% | 12.1 µM | 17% | 
16 | Nc1ncnc2c1ncn2[C@@H]1O[C@H](COP(=O)(O)O)[C@@H](OP(=O)(O)O)[C@H]1O [PAP] |  |  |  |  | koff (s^−1), (−) CMP8 ([8]; nucleotide binding to SULT1A3 without CMP8): 2.7 (0.1) s^−1; kon (μM^−1s^−1), (−) CMP8 ([8]; nucleotide binding to SULT1A3 without CMP8, parentheses standard error): 6.6 (0.2)^a μM^−1s^−1; koff (s^−1), (+) CMP8 [8, 10]: 1.1 (0.1) s^−1; kon (μM^−1s^−1), (+) CMP8 [8, 10]: 6.3 (0.3) μM^−1s^−1
